Measured values taken from patent US4038404A, “1,2,4-Triazole antimycotic compositions and use thereof” (Bayer Aktiengesellschaft, priority 1972, dated 1977).
Converted amounts (≈) assume the structure as drawn. Read-outs that look alike come from different tables or passages of the source.

Columns and labels:
Microsporon felineum = assay: Series dilution test in vitro, Microsporon felineum; format: cell-based; details: 28° C., 24 to 96 hours; read-out: Minimum inhibitory concentration (MIC)
Procedure: (§1) 1. DETERMINATION OF THE ANTI-MYCOTIC ACTION SPECTRUM IN VITRO BY THE SERIES DILUTION TEST.
(§2) Description of the Experiment
(§3) The nutrient substrates used were Sabourauds' milieu d'epreuve for dermatophytes and mould fungi and meat broth-glucose bouillon for blastomyces and biphase fungi. The incubation temperature was 28° C. and the incubation time was 24 to 96 hours.

Candida albicans [1] = assay: Candidosis of mice; format: in vivo, Mice of Type SPF-CF1; details: 2 × 100 mg/kg orally, one hour before and seven hours after infection, survivors on 6th day
Procedure: as §2
Mice of Type SPF-CF1 were intravenously infected with 1-2 × 10^6 logarithmically growing Candida cells suspended in physiological sodium chloride solution.
One hour before and seven hours after infection the animals were treated orally with 2 × 100 mg of the preparations/kg of body weight.
Untreated animals died of the infection 3 to 6 days after infection. The survival rate on the 6th day after infection was about 5% in the case of untreated control animals.

Aspergillus niger = assay: Series dilution test in vitro, Aspergillus niger; format: cell-based; details: for MIC: Aspergillus niger, read-out: Minimum inhibitory concentration (MIC)
Procedure: as §1, §2, §3

[2] = test system: Trichophyton mentagrophytes; assay: Series dilution test in vitro, Trichophyton mentagrophytes; format: cell-based; details: for MIC: Trichophyton mentagrophytes, read-out: Minimum inhibitory concentration (MIC)
Procedure: as §1, §2, §3

Penicillium commune = assay: Series dilution test in vitro, Penicillium commune; format: cell-based; details: read-out: Minimum inhibitory concentration (MIC)
Procedure: as §1, §2, §3

Candida albicans [3] = assay: Series dilution test in vitro, Candida albicans; format: cell-based
Procedure: as §1, §2, §3

[4] = test system: Trichophyton mentagrophytes; assay: Topical application in experimental trichophytosis of guinea pigs; format: in vivo; set-up: key to the marks not given beside the values; details: 1% strength solution applied locally for 11 to 14 days
Excerpt: a. Topical Application in Experimental Trichophytosis of Guinea Pigs (Pathogen: Trichophyton metagrophytes)
as §2
A 1% strength solution of the active compounds in a dimethylsulphoxide/glycerine/water mixture (1:3:6) or in polyethylene glycol 400 was applied locally for 11 to 14 days after the trichophytosis had been produced experimentally.

[5] = test system: Trichophyton mentagrophytes; assay: Oral administration on Quinckeanum trichophytosis of white mice; format: in vivo; set-up: key to the marks not given beside the values; details: 100 mg/kg orally twice daily up to the eighth day of the infection
Procedure: b. Action, on Oral Administration, on Quinckeanum Trichophytosis of White Mice
It was possible to suppress the development of the Quinckeanum infection in mice with doses of 100 mg/kg of body weight given orally twice daily up to the eighth day of the infection.

[6] = n.s. (no serum added), 28° C., 24 to 96 hours
[7] = w.s. (with 30% serum added), 28° C., 24 to 96 hours
[8] = n.s. (no serum added), 28° C., 24 to 96 hours, read-out: Minimum inhibitory concentration (MIC)
[9] = w.s. (with 30% serum added), 28° C., 24 to 96 hours, read-out: Minimum inhibitory concentration (MIC)
[10] = n.s. (no serum added), * = 90% inhibition of growth
[11] = w.s. (with 30% serum added), * = 90% inhibition of growth
[12] = n.s. (no serum added), * = 90% inhibition of growth, read-out: Minimum inhibitory concentration (MIC)

Structure (SMILES) | MIC (Microsporon felineum) [µg/mL] | Action against Candida albicans (Candida albicans [1]) | MIC (Aspergillus niger; [6]) [µg/mL] | MIC (Aspergillus niger; [7]) [µg/mL] | MIC [2, 6] [µg/mL] | MIC [2, 7] [µg/mL] | MIC (Penicillium commune; 28° C., 24 to 96 hours) [µg/mL] | MIC (Candida albicans [3]; [8]) [µg/mL] | MIC (Candida albicans [3]; [9]) [µg/mL] | MIC (Candida albicans [3]; [12]) [µg/mL] | also measured
CC(C)(C)C(=O)C(Oc1ccc(Cl)cc1Cl)n1cncn1 (stereo not shown) [Example 1, 1-[(2',4'-dichloro)-phenoxy]-1-[1',2', 4'-triazolyl-(1')]-3,3-dimethyl-butan-2-one] | 100 (≈ 305 µM) | + (50% survivors on the 6th day after infection) | 100 (≈ 305 µM) | 100 (≈ 305 µM) | 4 (≈ 12.2 µM) | 4 (≈ 12.2 µM) | > 100 | 40 (≈ 122 µM) | 40 (≈ 122 µM) | – | –
CC(C)(C)C(=O)C(Oc1ccc(Cl)cc1)(c1ccccc1)n1cncn1 (stereo not shown) [Example 5, 1-[(4'-chlorophenoxy)]-1-[phenyl]-1-[1',2',4'triazolyl-(1')]-3,3-dimethyl-butan-2-one] | > 64 | – | > 64 | > 64 | – | – | > 64 | > 64 | – | – | MIC [2, 10]: 1 µg/mL (≈ 2.7 µM); MIC [2, 11]: 32 µg/mL (≈ 86.5 µM)
O=C(c1ccc(Cl)cc1)C(Oc1ccc(Cl)cc1Cl)n1cncn1 (stereo not shown) [Example 6] | 40 (≈ 105 µM) | + (50% survivors on the 6th day after infection) | 100 (≈ 261 µM) | > 100 | – | – | > 100 | – | – | 10 (≈ 26.1 µM) | MIC [2, 10]: 4 µg/mL (≈ 10.5 µM); MIC [2, 11]: 10 µg/mL (≈ 26.1 µM); MIC (Candida albicans [3]; w.s. (with 30% serum added), * = 90% inhibition of growth, read-out: Minimum inhibitory concentration (MIC)): 100 µg/mL (≈ 261 µM)
CC(C)(C)C(=O)C(Oc1ccc(F)cc1)n1cncn1 (stereo not shown) [Example 9] | – | ++ (60-80% survivors on the 6th day after infection) | – | – | 8 (≈ 28.8 µM) | 32 (≈ 115 µM) | > 64 | 100 (≈ 361 µM) | > 64 | – | –
CC(C)(C)C(=O)C(Oc1ccc(-c2ccccc2)cc1)n1cncn1 (stereo not shown) [Example 12] | 40 (≈ 119 µM) | + (50% survivors on the 6th day after infection) | – | 100 (≈ 298 µM) | < 1 | < 1 | – | – | 100 (≈ 298 µM) | 100 (≈ 298 µM) | MIC (Aspergillus niger; [10]): 40 µg/mL (≈ 119 µM); Action against Trichophyton mentagrophytes [4]: ++++; Oral action against Trichophyton mentagrophytes [5]: ++; MIC (Penicillium commune; * = 90% inhibition of growth): 100 µg/mL (≈ 298 µM)
CC(C)(C)C(=O)C(Oc1ccccc1)n1cncn1 (stereo not shown) [Example 15] | – | – | – | – | 32 (≈ 123 µM) | 32 (≈ 123 µM) | > 64 | > 64 | – | – | –
Cc1ccc(OC(C(=O)C(C)(C)C)n2cncn2)cc1C (stereo not shown) [Example 17] | – | – | – | – | 32 (≈ 111 µM) | > 64 | > 64 | – | > 64 | 64 (≈ 223 µM) | –
CC(C)(C)C(=O)C(Oc1cc(Cl)c(Cl)cc1Cl)n1cncn1 (stereo not shown) [Example 20] | – | – | – | – | 32 (≈ 88.2 µM) | > 64 | > 64 | > 64 | – | – | –
CC(C)(C)C(=O)C(Oc1ccc(Cl)cc1Cl)(c1ccccc1)n1cncn1 (stereo not shown) [Example 21] | – | – | – | – | 8 (≈ 19.8 µM) | 64 (≈ 158 µM) | > 64 | > 64 | > 64 | – | –
CC(C)(C)C(=O)C(Oc1ccc(Cl)cc1)n1cncn1 (stereo not shown) [Example 27] | – | ++++ (>80% survivors on the 6th day after infection) | – | – | – | – | – | – | – | – | MIC (Aspergillus niger): 100 µg/mL (≈ 340 µM); Minimum inhibitory concentration (MIC) (Aspergillus niger; [7]): 100 µg/mL (≈ 340 µM); Action against Trichophyton mentagrophytes [4]: ++; MIC [2]: 4 µg/mL (≈ 13.6 µM); Minimum inhibitory concentration (MIC) [2, 7]: 4 µg/mL (≈ 13.6 µM); Oral action against Trichophyton quinckeanum [5]: ++++; MIC (Penicillium commune): > 100 µg/mL; MIC (Candida albicans [3]; read-out: Minimum inhibitory concentration (MIC), n.s. (no serum added), 28° C., 24 to 96 hours): 40 µg/mL (≈ 136 µM); MIC (Candida albicans [3]; read-out: Minimum inhibitory concentration (MIC), w.s. (with 30% serum added), 28° C., 24 to 96 hours): 100 µg/mL (≈ 340 µM)
